{"source": "patent US5843449A", "about": "“Proteins and novel peptides derived from autoantigen for use in immunotherapy of autoimmune diseases” (Akzo Nobel N.V., priority 1996, dated 1998)", "assay_type_in_all_cases": "in vivo", "key": {"[1]": {"system": "Balb/c mice", "experiment": "Immunological tolerance by intranasal HC gp-39, DTH assay (footpad swelling)", "description": "(§1) Twenty eight μg of protein was administered intranasally (2×10 μl) to 10 female Balb/c mice (anesthetized lightly with Enflurance) using a PT45 micro conduit and a Hamilton syringe. Antigen was administered on day -15, -10 and -5 prior to arthritis induction. Controls (n=10) were submitted to the same procedure but received the vehicle (PBS) only (Table 5).\nImmunological tolerance was evaluated by measuring delayed type hypersensitivity (DTH) response following sensitization as described above on day 0, using 10 μg of protein. Sensitization on day 0 was followed by an injection of 10 μg HC gp-39 in […] in the left hind footpad on day 8 (challenge). DTH reactions were measured as the increase in footpad ([swelling left (mm×10^-3)-swelling right (mm×10^-3)]/swelling right (mm×10^-3))×100%. The footpad swelling was measured using an in house designed μmeter at 0, 24 and 48 hr after challenge."}, "[2]": {"system": "Balb/c mice", "experiment": "Arthritogenicity of HC gp-39 in Balb/c mice", "conditions": "for arthritis signs: mild (number of animals) / arthritis signs: none (number of animals) / arthritis signs: severe (number of animals): n = 4; for arthritis signs: mild (number of animals): mild: score per animal does not exceed 2; for arthritis signs: none (number of animals): none: score = 0; for arthritis signs: severe (number of animals): severe: score per animal ≥3", "description": "(§2) 10 or 50 μg of purified HC gp-39 in a 100 μl volume PPBS (0.5M NaCl, 0.01M sodium phosphate buffer, pH 7.5) mixed 1:1 in incomplete Freunds adjuvant (IFA) was injected subcutaneously in the chest region in 2×4 female Balb/c mice (Harlan CPB, Zeist, The Netherlands) whereas 4 controls were injected with PBS (1:1 in IFA). Mice were examined daily for clinical signs of arthritis. Severity of arthritis was assessed by scoring each paw from 0-3 (according to the article by Glant et al). In short, score 0=no changes, score 1=erythema and swelling, score 2=swelling and appearance of deformities, score 3=immobility due to loss of flexion and extension."}, "[3]": {"system": "Balb/c mice", "experiment": "Tolerance to arthritis induction or progression after intranasal HC gp-39", "conditions": "for arthritis signs: mild (number of animals): mild: score per animal does not exceed 2; for arthritis signs: severe (number of animals): severe: score per animal ≥4; for arthritis onset (day): first signs appear - highest number of animals affected: monitored to day 31", "description": "as §2, §1\nTolerance to arthritis induction in these same mice was then further monitored until day 31 following sensitization and mice were examined daily for clinical signs. Severity of arthritis was assessed as mentioned above."}, "[4]": {"conditions": "controls (n = 10): PBS intranasal, 10 μg HC gp-39 s.c. day 0, 10 μg footpad challenge day 8"}, "[5]": {"conditions": "tolerized (n = 9): 28 μg HC gp-39 intranasal day -15, -10, -5, 10 μg s.c. day 0, 10 μg footpad day 8"}, "[6]": {"conditions": "controls (n = 10), non-tolerized, 10 μg HC gp-39 s.c."}, "[7]": {"conditions": "tolerized (n = 10): 28 μg HC gp-39 intranasal x3, then 10 μg s.c."}}, "note": "Several values for one entry are separate records, joined by “and”; a condition that tells them apart may be missing. Equal values may be shown once.", "data": [{"substance": "HC gp-39: Human Cartilage glycoprotein 39, purified from culture supernatant of MG63 human osteosarcoma cells; target autoantigen in RA", "values": [{"measurement": "DTH response (in words)", "setting": "[1]; control (non-tolerized) mice injected with HC gp-39 at day 0", "value": "strong, antigen-specific DTH response"}, {"measurement": "DTH, mean % swelling 0 hr", "setting": "[1]; [4]", "value": -1.3, "unit": "%"}, {"measurement": "DTH, mean % swelling 24 hr", "setting": "[1]; [4]", "value": 31.4, "unit": "%"}, {"measurement": "DTH, mean % swelling 48 hr", "setting": "[1]; [4]", "value": 38.6, "unit": "%"}, {"measurement": "arthritis ankle (animals affected, adjacent to site of challenge)", "setting": "[1]; [4]", "value": "4 out of 10 and 4/10 and four out of ten"}, {"measurement": "DTH, mean % swelling 0 hr", "setting": "[1]; [5]", "value": -0.05, "unit": "%"}, {"measurement": "DTH, mean % swelling 24 hr", "setting": "[1]; [5]", "value": 3.7, "unit": "%"}, {"measurement": "DTH, mean % swelling 48 hr", "setting": "[1]; [5]", "value": 1.5, "unit": "%"}, {"measurement": "arthritis ankle (animals affected, adjacent to site of challenge)", "setting": "[1]; [5]", "value": "did not develop an arthritis and 0/9 and fully protected"}, {"measurement": "DTH responses upon challenge (in words)", "setting": "[1]; tolerized by intranasal administration of HC gp-39", "value": "completely abrogated"}, {"measurement": "arthritis signs: mild (number of animals)", "setting": "[2]; 10 μg s.c. in IFA", "value": "One and 1"}, {"measurement": "arthritis signs: none (number of animals)", "setting": "[2]; 10 μg s.c. in IFA", "value": 0}, {"measurement": "arthritis signs: severe (number of animals)", "setting": "[2]; 10 μg s.c. in IFA", "value": "Three out of 4 and 3"}, {"measurement": "arthritis signs: mild (number of animals)", "setting": "[2]; 50 μg s.c. in IFA", "value": 0}, {"measurement": "arthritis signs: none (number of animals)", "setting": "[2]; 50 μg s.c. in IFA", "value": 0}, {"measurement": "arthritis signs: severe (number of animals)", "setting": "[2]; 50 μg s.c. in IFA", "value": "all mice and 4"}, {"measurement": "arthritis onset (day) FP (fore paw), per animal", "setting": "[2]; 50 μg s.c. in IFA, n = 4 Balb/c mice", "value": "15 to 20", "unit": "days"}, {"measurement": "frequency of symmetrical distribution of afflicted joints", "setting": "[2]; 50 μg s.c. in IFA, followed for 62 days", "value": "> 50", "unit": "%"}, {"measurement": "arthritis signs: mild (number of animals)", "setting": "[3]; [6]", "value": "three and 3"}, {"measurement": "arthritis signs: none (number of animals)", "setting": "[3]; controls (n = 10), non-tolerized, 10 μg HC gp-39 s.c., no signs: score 0", "value": 0}, {"measurement": "arthritis signs: severe (number of animals)", "setting": "[3]; [6]", "value": "Seven and 7"}, {"measurement": "arthritis onset (day): first signs appear - highest number of animals affected", "setting": "[3]; controls (n = 10), non-tolerized, sensitized with 10 μg HC gp-39 s.c.", "value": "13 to 16", "unit": "days"}, {"measurement": "arthritis onset (day): first signs appear - highest number of animals affected", "setting": "[3]; tolerized (n = 10): 28 μg HC gp-39 intranasal day -15, -10, -5, then 10 μg s.c.", "value": "23 to 24", "unit": "days"}, {"measurement": "arthritis signs: mild (number of animals)", "setting": "[3]; [7]", "value": "two and 2"}, {"measurement": "arthritis signs: severe (number of animals)", "setting": "[3]; [7]", "value": "Three and 3"}, {"measurement": "delay of arthritis onset in tolerized animals, hind and fore paws respectively", "setting": "[3]; tolerized vs non-tolerized, FIG. 1", "value": "7 to 9", "unit": "days"}]}]}
